Laboratory results reported in the NIST ThermoML archive (doi:10.1016/j.jct.2006.05.004).

Tests used:
[1] = 298.15 K; 101.33 kPa; Liquid
[2] = refractive index (Na D-line) (dimensionless); details: 298.15 K; 101.33 kPa; Liquid; Standard Abbe refractometry
[3] = xn = mol fraction of the nth substance listed; details: 298.15 K, 101 kPa, Liquid
[4] = excess molar enthalpy (molar enthalpy of mixing); xn = mol fraction of the nth substance listed; details: 298.15 K, 101 kPa, Liquid

CCC(=O)OC [methyl propanoate]
Details	mass density [kg/m3]	refractive index
[1]	910.18	–
[2]	–	1.374

CCCC(=O)OC [methyl butanoate]
Details	mass density [kg/m3]	refractive index
[1]	892.42	–
[2]	–	1.386

CCCCC(=O)OC [methyl pentanoate]
Details	mass density [kg/m3]	refractive index
[1]	884.59	–
[2]	–	1.395

BrCCCCBr [1,4-dibromobutane] + CCCC(=O)OC
Details	excess molar enthalpy [kcal/mol]	mass density [kg/m3]
[3], x2 = 0.121	–	1710.83
[3], x2 = 0.1809	–	1656.55
[3], x2 = 0.2384	–	1604.18
[3], x2 = 0.2953	–	1552.31
[3], x2 = 0.3601	–	1492.93
[3], x2 = 0.4182	–	1439.44
[3], x2 = 0.4848	–	1377.96
[3], x2 = 0.5382	–	1328.46
[3], x2 = 0.5989	–	1272
[3], x2 = 0.653	–	1221.36
[3], x2 = 0.7699	–	1111.48
[3], x2 = 0.8252	–	1059.19
[3], x2 = 0.8804	–	1006.8
[4], x2 = 0.0662	0.0111	–
[4], x2 = 0.1525	0.019	–
[4], x2 = 0.2456	0.0232	–
[4], x2 = 0.3392	0.0233	–
[4], x2 = 0.4222	0.019	–
[4], x2 = 0.4708	0.0156	–
[4], x2 = 0.5515	0.00743	–
[4], x2 = 0.6276	0.000621	–
[4], x2 = 0.6882	-0.00366	–
[4], x2 = 0.7845	-0.0054	–
[4], x2 = 0.8702	-0.00452	–
[4], x2 = 0.9455	-0.00256	–

BrCCBr [1,2-dibromoethane] + CCC(=O)OC
Details	excess molar enthalpy [kcal/mol]	mass density [kg/m3]
[3], x2 = 0.0544	–	2090.48
[3], x2 = 0.1086	–	2015.14
[3], x2 = 0.1617	–	1942.18
[3], x2 = 0.213	–	1872.81
[3], x2 = 0.2714	–	1794.99
[3], x2 = 0.3254	–	1724.12
[3], x2 = 0.4447	–	1570.72
[3], x2 = 0.5056	–	1494.18
[3], x2 = 0.561	–	1425.55
[3], x2 = 0.6166	–	1357.57
[3], x2 = 0.6838	–	1276.41
[3], x2 = 0.743	–	1205.94
[3], x2 = 0.8086	–	1129
[3], x2 = 0.8715	–	1056.36
[3], x2 = 0.9358	–	982.68
[4], x1 = 0.0552	0.0107	–
[4], x1 = 0.1177	0.0166	–
[4], x1 = 0.18	0.0207	–
[4], x1 = 0.2446	0.0215	–
[4], x1 = 0.3072	0.0203	–
[4], x1 = 0.3659	0.0179	–
[4], x1 = 0.4203	0.0141	–
[4], x1 = 0.4702	0.00939	–
[4], x1 = 0.4789	0.00657	–
[4], x1 = 0.5086	0.00466	–
[4], x1 = 0.5255	0.00246	–
[4], x1 = 0.5837	-0.00251	–
[4], x1 = 0.6456	-0.00514	–
[4], x1 = 0.7119	-0.00614	–
[4], x1 = 0.7852	-0.00672	–
[4], x1 = 0.8597	-0.00547	–
[4], x1 = 0.9321	-0.00287	–

BrCCCBr [1,3-dibromopropane] + CCC(=O)OC
Details	excess molar enthalpy [kcal/mol]	mass density [kg/m3]
[3], x2 = 0.059	–	1909.4
[3], x2 = 0.1261	–	1841.06
[3], x2 = 0.1889	–	1776.8
[3], x2 = 0.243	–	1720.78
[3], x2 = 0.3657	–	1593.37
[3], x2 = 0.4328	–	1523.29
[3], x2 = 0.4901	–	1462.96
[3], x2 = 0.5464	–	1403.57
[3], x2 = 0.6165	–	1328.98
[3], x2 = 0.7214	–	1216.43
[3], x2 = 0.7712	–	1162.65
[3], x2 = 0.8235	–	1105.81
[3], x2 = 0.8863	–	1037.06
[3], x2 = 0.9375	–	980.57
[4], x2 = 0.0646	0.0167	–
[4], x2 = 0.1354	0.0273	–
[4], x2 = 0.2107	0.0338	–
[4], x2 = 0.2845	0.037	–
[4], x2 = 0.3517	0.0365	–
[4], x2 = 0.4137	0.0336	–
[4], x2 = 0.4627	0.03	–
[4], x2 = 0.4703	0.0293	–
[4], x2 = 0.5077	0.0264	–
[4], x2 = 0.5202	0.0247	–
[4], x2 = 0.5574	0.0222	–
[4], x2 = 0.566	0.0202	–
[4], x2 = 0.6073	0.0156	–
[4], x2 = 0.6129	0.0138	–
[4], x2 = 0.6726	0.00743	–
[4], x2 = 0.7385	0.000502	–
[4], x2 = 0.8065	-0.00323	–
[4], x2 = 0.873	-0.00351	–
[4], x2 = 0.9388	-0.00215	–

BrCCBr [1,2-dibromoethane] + COC=O
Details	excess molar enthalpy [kcal/mol]	mass density [kg/m3]
[3], x2 = 0.0941	–	2084.41
[3], x2 = 0.1513	–	2030.58
[3], x2 = 0.2019	–	1980.75
[3], x2 = 0.251	–	1931.96
[3], x2 = 0.2967	–	1881.94
[3], x2 = 0.3904	–	1784.54
[3], x2 = 0.4985	–	1662.03
[3], x2 = 0.5973	–	1543.27
[3], x2 = 0.7057	–	1404.1
[3], x2 = 0.7483	–	1346.2
[3], x2 = 0.7967	–	1278.68
[3], x2 = 0.8478	–	1205.01
[3], x2 = 0.8808	–	1155.98
[3], x2 = 0.9402	–	1064.28
[4], x2 = 0.0726	0.0561	–
[4], x2 = 0.1528	0.112	–
[4], x2 = 0.2426	0.156	–
[4], x2 = 0.3298	0.179	–
[4], x2 = 0.4034	0.19	–
[4], x2 = 0.4719	0.194	–
[4], x2 = 0.5315	0.192	–
[4], x2 = 0.5856	0.185	–
[4], x2 = 0.6347	0.175	–
[4], x2 = 0.6786	0.163	–
[4], x2 = 0.7171	0.15	–
[4], x2 = 0.7759	0.127	–
[4], x2 = 0.8639	0.0849	–
[4], x2 = 0.9405	0.041	–

BrCCCCCBr [1,5-dibromopentane] + COC=O
Details	excess molar enthalpy [kcal/mol]	mass density [kg/m3]
[3], x2 = 0.1109	–	1653.22
[3], x2 = 0.2235	–	1607
[3], x2 = 0.3094	–	1567.09
[3], x2 = 0.3956	–	1522.56
[3], x2 = 0.4606	–	1485.39
[3], x2 = 0.5307	–	1441.42
[3], x2 = 0.5985	–	1394.16
[3], x2 = 0.6548	–	1350.94
[3], x2 = 0.7035	–	1310.4
[3], x2 = 0.753	–	1265.54
[3], x2 = 0.7889	–	1230.37
[3], x2 = 0.8347	–	1181.99
[3], x2 = 0.9065	–	1097.57
[3], x2 = 0.9653	–	1017.86
[3], x2 = 0.9733	–	1006.52
[4], x2 = 0.1086	0.101	–
[4], x2 = 0.2259	0.174	–
[4], x2 = 0.336	0.227	–
[4], x2 = 0.4363	0.255	–
[4], x2 = 0.5163	0.265	–
[4], x2 = 0.5848	0.264	–
[4], x2 = 0.64	0.254	–
[4], x2 = 0.6892	0.241	–
[4], x2 = 0.7311	0.225	–
[4], x2 = 0.7667	0.207	–
[4], x2 = 0.8146	0.18	–
[4], x2 = 0.8709	0.14	–
[4], x2 = 0.9225	0.0935	–
[4], x2 = 0.9675	0.046	–

BrCCCCCCBr [1,6-dibromohexane] + CCC(=O)OC
Details	excess molar enthalpy [kcal/mol]	mass density [kg/m3]
[3], x2 = 0.0903	–	1557.49
[3], x2 = 0.1731	–	1517.27
[3], x2 = 0.254	–	1475.55
[3], x2 = 0.3276	–	1435.11
[3], x2 = 0.3987	–	1393.7
[3], x2 = 0.4603	–	1355.72
[3], x2 = 0.5254	–	1313.37
[3], x2 = 0.5807	–	1275.39
[3], x2 = 0.6388	–	1233.34
[3], x2 = 0.695	–	1190.53
[3], x2 = 0.7429	–	1152.05
[3], x2 = 0.7914	–	1111.32
[3], x2 = 0.838	–	1070.17
[3], x2 = 0.8789	–	1032.36
[3], x2 = 0.9195	–	993.3
[3], x2 = 0.9621	–	950.1
[4], x2 = 0.0951	0.0356	–
[4], x2 = 0.1915	0.0572	–
[4], x2 = 0.2814	0.0727	–
[4], x2 = 0.3659	0.0818	–
[4], x2 = 0.4423	0.0858	–
[4], x2 = 0.5073	0.0845	–
[4], x2 = 0.5644	0.0809	–
[4], x2 = 0.6136	0.076	–
[4], x2 = 0.6648	0.067	–
[4], x2 = 0.7136	0.0588	–
[4], x2 = 0.7663	0.0488	–
[4], x2 = 0.817	0.0397	–
[4], x2 = 0.8647	0.0308	–
[4], x2 = 0.9137	0.0207	–
[4], x2 = 0.9606	0.0103	–
